According to US5091528A, “6- or 7- (2-imino-2-imidazolidine)-1,4-benzoxazines as α adrenergic agents” (Allergan, Inc., priority 1990, dated 1992):
Where a name gives a salt, the structure may show the parent alone.

Tests used:
alpha2 -Adrenoreceptor = details: described by Chapleo et al.; cited from earlier work
[1] = target: T1, alpha-2 adrenergic receptor (Oryctolagus cuniculus, UniProt Q5ZQK3); experiment: Rabbit Vas Deferens Assay (alpha-2 adrenergic receptor activity); set-up: species or system New Zealand white rabbit; details: field-stimulated rabbit vas deferens, 35 degrees C, 4 minute contact time; read-out: EC50 (effective concentration required for a 50% reduction in response height)
T1 construct: The prostatic ends of the vasa deferentia (2-3 cm lengths) were mounted between platinum ring electrodes; from tissue; host or cells: prostatic ends of vasa deferentia of New Zealand white rabbits
T1 sequence (Q5ZQK3 1-451): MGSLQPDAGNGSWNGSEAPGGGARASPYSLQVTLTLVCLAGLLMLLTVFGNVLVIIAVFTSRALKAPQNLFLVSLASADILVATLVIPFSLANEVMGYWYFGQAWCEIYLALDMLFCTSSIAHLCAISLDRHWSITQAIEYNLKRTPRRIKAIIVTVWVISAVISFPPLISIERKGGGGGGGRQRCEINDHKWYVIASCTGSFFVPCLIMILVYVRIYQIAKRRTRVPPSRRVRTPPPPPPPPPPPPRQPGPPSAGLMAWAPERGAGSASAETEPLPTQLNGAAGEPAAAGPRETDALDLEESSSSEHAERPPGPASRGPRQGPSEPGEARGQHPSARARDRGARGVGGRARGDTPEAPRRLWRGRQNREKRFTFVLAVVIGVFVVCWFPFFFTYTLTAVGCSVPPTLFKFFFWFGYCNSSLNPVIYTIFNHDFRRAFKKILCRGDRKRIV
Procedure: (§1) The test procedure for alpha-2 adrenergic receptor activity of the compounds of the present invention is the rabbit vas deferens assay which is described as follows:
(§2) New Zealand white rabbits (2-3 kg) were killed by CO2 inhalation and the vasa deferentia removed. The prostatic ends of the vasa deferentia (2-3 cm lengths) were mounted between platinum ring electrodes in 9 ml organ baths and bathed in Krebs bicarbonate solution of the following composition (millimolar): NaCl 118.0; KCl 4.7; CaCl2 2.5; MgSO4 1.2; KH2 PO4 1.2; glucose 11.0; NaHCO3 25.0; which solution was maintained at 35 degrees C and bubbled with 95% O2 and 5% CO2. The initial tension of the vas deferens was 0.5 g. The tissues were left to equilibrate for 30 minutes before stimulation was started. […] Cumulative concentration-response curves were obtained for the compounds being tested with a 4 minute contact time at each concentration. The reduction in response height was measured and expressed as a percentage of the height of the response before the addition of the compounds. Concentration response curves for each of the compounds were plotted. The effective concentration required for a 50% reduction in response height, expressed as EC50 were obtained from these curves.

[2] = test system: alpha-2 adrenergic receptor; experiment: as above; set-up: species or system New Zealand white rabbit; details: for Comment (α1/α2 selectivity): Rabbit Vas Deferens table
Procedure: as §1, §2

[3] = test system: Alpha 1 adrenergic receptor; experiment: Rabbit Aorta: Alpha 1 adrenergic receptor assay; details: rabbit thoracic aorta rings, 37° C
Text: The vasoconstrictive properties of the compounds of the present invention, i.e. their ability to reduce or control intraocular bleeding, are established by the rabbit aorta: alpha 1 adrenergic receptors in vivo assay procedure, which is recognized in the art to be indicative of the in vivo activity of the tested compounds as vaso-constrictors or as anti intraocular bleeding agents.
Thoracic aorta specimens were obtained form albino rabbits that were killed by CO2 inhalation. The aorta was cut into 3 mm rings. Tissues were placed in Krebs-Hensleit solution of the following composition (millimolar): NaCl 119; KCl 4.7; MgSO4 1.5, KH2 PO4 1.2; CaCl2 2.5; NaHCO3 25 and glucose 11.0. The solution also contained cocaine (0.1 millimolar) to block neuronal uptake and EDTA (30 micromolar) and ascorbic acid (5 micromolar) to prevent oxidation of the compound being tested. Tissues were hung in 10 ml organ baths and tension was measured via Grass FT03 force-displacement transducers. Resting tension was 2 g for the aorta. The solution was gassed with 95% O2 and 5% CO2 and maintained at 37° C. Tissues were allowed to equilibrate for 2 hours before stimulation and the cumulative addition of the compound to be tested (aryl oxazoline) was started. Tissue stimulation was performed using a square wave stimulator (WPI A310) Accupulser with A385 stimulus) at 0.1 Hz, 2 ms pulse width at 90 mA.

intraocular pressure = intraocular pressure (anti-glaucoma) assay, topical unilateral administration; type: in vivo, monkey or New Zealand white rabbit
Procedure: The anti-glaucoma activity (ability to maintain or reduce intraocular pressure) of the compounds of the present invention is established by the following assay pressure. This assay procedure is generally recognized in the art to provide pertinent information with respect to the anti-glaucomaactivity of the formulations assayed. Thus, each of the compounds of the invention to be tested was dissolved in distilled water at a concentration of 0.3% (W/V). Each of these solutions was administered topically and unilaterally to one eye of a drugnaive, unanesthetized monkey or New Zealand white rabbit in a single 50 micro liter drop. The contralateral eye received an equal volume of saline prior to determining the intraocular pressure after the mixture was administered. Also, approximately 10 micro liters of 0.5% (W/V) proparacaine (topical anesthetic) was applied to the corneas of each of the animals before determining intraocular pressure. As a control test, six (6) other drug-naive, unanesthetized animals were treated and tested as described above except that no compound of the invention was included in the solutions administered to the eyes.
The intraocular pressure was determined in both eyes of each animal both before and after the solutions were administered. Such intraocular pressure determinations were made in the conventional manner using conventional equipment.

[4] = storage stability of solid; type: physicochemical; details: stored in the dark at 0° C
[5] = Contralateral (Untreated) Eye, 0.3% (W/V) to the other eye
[6] = Ipsilateral (Treated) Eye, 0.3% (W/V), single 50 micro liter drop

O=C1COc2cc(N=C3NCCN3)ccc2N1 [Example 3, 7-2(2-imino-2-imidazolidine)-3-oxo-3,4-dihydro-(2H)-1,4-benzoxazine]
alpha-2 agonist activity (alpha2 -Adrenoreceptor): partial alpha-2 agonists

O=C1COc2cc(N=C3NCCN3)c(Br)cc2N1 [Example 4, 6-Bromo-7-(2-imino-2-imidazolidine)-3-oxo-3,4-dihydro-(2H)-1,4-benzoxazine,hydrobromide]
EC50 [1]: 0.167 ± 0.0561 µM
Comment (α1/α2 selectivity) [2]: α2 Selective
EC50 [3]: 1.12 ± 0.457 µM

O=C1COc2c(cc(Br)c(N=C3NCCN3)c2Br)N1 [Example 5, 6,8-dibromo-7-(2-imino-2-imidazolidine)-3-oxo-3,4-dihydro-(2H)-1,4-benzoxazine]
EC50 [1]: 0.00059 ± 0.00014 µM
Comment (α1/α2 selectivity) [2]: Non-Selective
Comment (vasoconstrictor activity) ([2]; printed "Potent- Vasoconstrictor" on two lines): Vasoconstrictor
EC50 [3]: 0.00341 ± 0.0005 µM

Brc1cc2c(cc1N=C1NCCN1)OCCN2 [Example 7, 6-bromo-7-(2-imino-2-imidazolidine)-3,4-dihydro-(2H)-1,4-benzoxazine]
EC50 [1]: > 10 µM
Comment (α1/α2 selectivity) [2]: α1 Selective
EC50 [3]: 0.039 ± 0.00636 µM

O=C1COc2ccc(N=C3NCCN3)cc2N1 [Example 12, 6-(2-imino-2-imidazlidine)-3-oxo-3,4-dihydro-(2H)-1,4-benzoxazine]
alpha-2 agonist activity (alpha2 -Adrenoreceptor): partial alpha-2 agonists

O=C1COc2cc(Br)c(N=C3NCCN3)c(Br)c2N1 [Example 14, 5,7-dibromo-6-(2-imino-2-imidazolidine)-3-oxo-3,4-dihydro-2H-1,4-benzoxazin]
EC50 [1]: 0.0485 ± 0.0206 µM
Comment (α1/α2 selectivity) [2]: α2 Selective
EC50 [3]: > 100 µM

CN1C(=O)COc2cc(N=C3NCCN3)c(Br)cc21 [Example 22, 4-methyl-6-bromo-7-(2-imino-imidazolidine)-3-oxo-3,4-dihydro-2H-1,4-benzoxazinehydrobromide]
EC50 [1]: 0.105 ± 0.0355 µM
Comment (α1/α2 selectivity) [2]: α2 Selective
Duration of IOP decrease (intraocular pressure; [5]): 1 h
Maximum Difference in Intraocular Pressure After Solution Administration, % Decrease in IOP from Control (intraocular pressure; [5]): 5.7 ± 2.0%
Duration of IOP decrease (intraocular pressure; [6]): 1 to 2 h
Maximum Difference in Intraocular Pressure After Solution Administration, % Decrease in IOP from Control (intraocular pressure; [6]): 11.5 ± 2.7%
EC50 [3]: 1.43 ± 0.891 µM

CN1C(=O)COc2cc(Br)c(N=C3NCCN3)cc21 [Example 31, 7-bromo-4-methyl-6-(2-imino-imidazolidine)-3-oxo-3,4-dihydro-(2H)-1,4-benzoxazine]
EC50 [1]: 0.0415 ± 0.0244 µM
Comment (α1/α2 selectivity) [2]: α2 Selective
Duration of IOP decrease (intraocular pressure; [5]): 1 h
Maximum Difference in Intraocular Pressure After Solution Administration, % Decrease in IOP from Control (intraocular pressure; [5]): 6.8 ± 1.8%
Duration of IOP decrease (intraocular pressure; [6]): 1 to 6 h
Maximum Difference in Intraocular Pressure After Solution Administration, % Decrease in IOP from Control (intraocular pressure; [6]): 14 ± 2.5%
EC50 [3]: 2.74 ± 1.43 µM

Cc1cc2c(cc1N=C1NCCN1)NC(=O)CO2 [Example 39, 7-methyl-6(2-imino-2-imidazolidine)-3-oxo-3,4-dihydro-(2H)-1,4-benzoxazine]
EC50 [1]: 0.0746 ± 0.0436 µM
Comment (α1/α2 selectivity) [2]: α2 Selective
EC50 [3]: 5.69 ± 0.956 µM

CCc1cc2c(cc1N=C1NCCN1)NC(=O)CO2 [Example 50, 7-Ethyl-6-(2-imino-2-imidazolidine)-3-oxo-3,4-dihydro-(2H)-1,4-benzoxazine]
EC50 [1]: 0.00892 ± 0.00311 µM
Comment (α1/α2 selectivity) [2]: α2 Selective
EC50 [3]: 0.94 ± 0.0185 µM

CCCc1c(N=C2NCCN2)ccc2c1NC(=O)CO2 [Example 56, 5-Propyl-6-(2-imino-2-imidazolidine)-3-oxo-3,4-dihydro-(2H)-1,4-benzoxazine]
EC50 [1]: 0.0181 ± 0.00121 µM
Comment (α1/α2 selectivity) [2]: α2 Selective
EC50 [3]: 1.12 ± 0.0941 µM

O=S(=O)(O)C1=NCCN1 [Imidazoline-2-sulfonic acid]
stability of solid on storage [4]: at least 6 months
